Test [1] has as its system trypsin biosynthesis in the midgut of female Aedes aegypti. The test is described as follows: NPF injected into blood-fed whole female mosquitoes, midgut trypsin biosynthesis. The conditions noted are these: whole blood-fed females, injected 0.25 μl at 10^−6 M, midguts assayed 30 hours later. The format is in vivo. Here is the method:
To determine whether NPF I and II affect trypsin biosynthesis in the midgut of female Aedes aegypti, females were fed a blood meal and immediately injected with 0.25 μl of the peptide at concentrations of 2.5 μg to 12.5 pg and 30 hours later the midguts were removed and assayed for trypsin biosynthesis (Borovsky et al., 1990 “Mosquito Oostatic Factor: A Novel Decapeptide Modulating Trypsin-Like Enzyme Biosynthesis in the Midgut” FASEB J. 4:3015-3020; Borovsky et al. 1993 “Mass Spectrometry and Characterization of Aedes aegypti Trypsin Modulating Oostatic Factor (TMOF) and its Analog” Insect Biochem. Molec. Biol. 23:703-712). Each experiment was repeated 3 times (5 females per group) and the results are expressed as % inhibition of trypsin biosynthesis±S.E.M. (FIG. 1).

The subject of test [2] is Aedes aegypti larvae. Description: Feeding TMOF and analog peptides to mosquito larvae (LD50). The format is in vivo. As to conditions: newly hatched larvae on autoclaved yeast 1 mg/ml, peptide 0 to 5.0 mg/ml, microtiter plates, 7 days. The source says: TMOF can traverse the gut epithelium, enter the hemolymph and bind a gut receptor (Borovsky, D. and F. Mahmood (1995) “Feeding the mosquito Aedes aegypti with TMOF and its analogs; effect on trypsin biosynthesis and egg development,” Regulatory Peptides 57:273-281.; Borovsky et al. (1994) “Characterization and localization of mosquito-gut receptors for trypsin modulating oostatic factor using complementary peptide immunochemistry”FASEB J. 8:350-355.). This characteristic permits the testing of TMOF and its analogues by feeding them to mosquito and other pest larvae. To find out if truncated TMOF peptides have an effect on larval growth and development, a series of peptides were synthesized and tested by feeding them to mosquito larvae at concentrations of 0 to 5.0 mg/ml (Table 2). Individual, newly hatched Aedes aegypti larvae were maintained in separate microtiter plate wells on a diet of autoclaved yeast (1 mg/ml). The diet was supplemented with TMOF peptides (Table 2). An identical number of larvae maintained on yeast served as a control. […] All control groups survived and larval growth and development was normal. Since larvae swallow only a small portion of the yeast particles adsorbed the peptides, it is assumed that approximately 1 to 20 ng are taken orally at the high concentrations.

Test [3] concerns fourth instar Heliothis virescens. Description: Feeding TMOF analogs to fourth instar H. virescens: larval weight. The test is classed as in vivo. As to conditions: fourth instar larvae; for Weight Gain: 0.8 mg of analogue, 5 days; for Weight mg ± S.E.M. End: synthetic food and 0.8 mg of analogue, after 5 days; for Weight mg ± S.E.M. Start: weight before feeding (baseline). On the procedure: (§1) Several analogues were chosen and were fed to fourth instar Heliothis virescens for seven (7) days and to first instars for fourteen (14) days (Tables 3 and 4). In both cases a reduction in weight gain and trypsin inhibition was noted (Tables 3 and 4).
(§2) Individual first instar and fourth instar larvae of H. virescens were maintained in separate plastic cups and were fed on artificial diet blocks on which different concentrations of TMOF (0 to 1.6 mg) were adsorbed. Larvae were fed for 5 to 14 days and larval weight and trypsin activity were measured at the end of the experimental periods. […] When first instar larvae were fed for 14 days, an 18% and 26% reduction in weight was observed when analogues 15 and 16 were used (Table 4).
Fourth instar larvae were weighed and fed on synthetic food and 0.8 mg of TMOF analogues for 5 days. […]. Results are average of 3 to 10 experiments S.E.M.

Test [4] relates to TTLE biosynthesis. The test is described as follows: Feeding TMOF analogs to fourth instar H. virescens: gut trypsin (TTLE) biosynthesis by [3H]DFP. Further details: Trypsin: unit not given here. The test is classed as in vivo, Heliothis virescens. As to conditions: fourth instar larvae, 0.8 mg of analogue, 5 days; for Trypsin: guts incubated with [3H]DFP; for Inhibition (trypsin): versus control.

Test [5] deals with first instar Heliothis virescens. Description: Feeding first instar H. virescens on TMOF analogs for 14 days. The test is classed as in vivo. Set-up: Weight Reduction ± S.E.M.: concentration or dose not given beside the values. As to conditions: first instar larvae fed 14 days; for Weight Reduction ± S.E.M.: versus control. Here is the method:
as §1, §2

For test [6], the target named is TMOF receptor (mosquito gut receptor) (Aedes aegypti). Description: cell-based or functional assay.

Ends that are not written are not given here. Peptide text beside a SMILES is read from it.

Consider “Ala-Pro-Ser-Arg-Leu-Arg-Phe-amide (APSRLRF-NH2) [NPF II]”, for which the “% inhibition of trypsin biosynthesis” value in test [1] was found to be 35%.
YDPGP [16. YDPGP, YDPGP]: the “LD50 + S.E.M.” value in test [2] is given as 1.1 ± 0.18 mM. In test [3], the “Weight Gain” value is listed as 163.1 mg, the “Weight mg ± S.E.M. End” value is listed as 199.8 ± 11 mg and the “Weight mg ± S.E.M. Start” value amounted to 31.7 ± 1.6 mg. Besides, in test [4], the Trypsin was 2.1 ± 0.1 and the “Inhibition (trypsin)” value amounted to 17 ± 1%. For the same compound, in test [5], the “Number of Dead Larvae” value is on record as 2, the “Weight ± S.E.M.” value turned out to be 153 ± 10 mg and the “Weight Reduction ± S.E.M.” value is 6 ± 0.4%.
Take YDAAP [15. YDAAP, YDAAP]: the “LD50 + S.E.M.” value in test [2] is listed as 1.0 ± 0.18 mM. Moreover, in test [3], the “Weight Gain” value turned out to be 179 mg, the “Weight mg ± S.E.M. End” value is 217 ± 9.5 mg and the “Weight mg ± S.E.M. Start” value was 38.2 ± 1.3 mg. In test [4], the Trypsin turned out to be 2.1 ± 0.2 and the “Inhibition (trypsin)” value came out at 17 ± 1.6%. Also, in test [5], the “Number of Dead Larvae” value was 0, the “Weight ± S.E.M.” value came out at 133 ± 7 mg and the “Weight Reduction ± S.E.M.” value is on record as 18 ± 1%.
In the case of “NPF I (Ala-Arg-Gly-Pro-Gln-Leu-Arg-Leu-Arg-Phe-amide) (peptide)”, the inhibition of trypsin biosynthesis (ligated abdomens of blood-fed female Aedes aegypti, 30 h after injection) (% inhibition at 10^-6 M) in test [6] is 54.
Consider YSPAP [18. YSPAP, YSPAP], for which the “LD50 + S.E.M.” value in test [2] is recorded as 1.4 ± 0.03 mM. Further, in test [3], the “Weight Gain” value worked out at 151 mg, the “Weight mg ± S.E.M. End” value was determined as 188 ± 10.6 mg and the “Weight mg ± S.E.M. Start” value is on record as 30.6 ± 1.2 mg. In addition, in test [4], the Trypsin is on record as 2.0 ± 0.2 and the “Inhibition (trypsin)” value turned out to be 19 ± 2%. Besides, in test [5], the “Number of Dead Larvae” value was found to be 0, the “Weight ± S.E.M.” value came to 168 ± 11 mg and the “Weight Reduction ± S.E.M.” value worked out at 0%.
As for `N[C@@H](CC(=O)O)C(=O)N[C@@H](Cc1ccc(O)cc1)C(=O)N1CCC[C@H]1C(=O)O` [31. DYP, DYP] (H-Asp-Tyr-Pro-OH; N-terminus and C-terminus assumed), the “LD50 + S.E.M.” value in test [2] is given as 1.27 ± 0.17 mM. In test [3], the “Weight Gain” value was 180.5 mg, the “Weight mg ± S.E.M. End” value is 216.7 ± 13 mg and the “Weight mg ± S.E.M. Start” value is recorded as 36.2 ± 2.4 mg. In addition, in test [4], the Trypsin is recorded as 2.2 ± 0.3 and the “Inhibition (trypsin)” value turned out to be 14 ± 1.8%. Besides, in test [5], the “Number of Dead Larvae” value was determined as 1, the “Weight ± S.E.M.” value came out at 149 ± 9 mg and the “Weight Reduction ± S.E.M.” value was determined as 9 ± 0.5%.

The values are drawn from patent US6593299B1, “Compositions and methods for controlling pests” (priority 1999, dated 2003).
